Reference: PubChem BioAssay (NCI)
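Assay format: 96-well plates, 48-hour exposure. TGI: concentration producing complete growth inhibition.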

Columns and labels:
Assay in all cases: NCI anticancer screen, dose series, 48 h
SF-268 CNS = system: SF-268 CNS
TK-10 renal = system: TK-10 renal
SW-620 colon = system: SW-620 colon
M14 melanoma = system: M14 melanoma
SNB-75 CNS = system: SNB-75 CNS
CCRF-CEM leukemia = system: CCRF-CEM leukemia
DLD-1 colon = system: DLD-1 colon
BT-549 breast = system: BT-549 breast
MDA-MB-435 = system: MDA-MB-435
UACC-62 melanoma = system: UACC-62 melanoma
786-0 renal = system: 786-0 renal
HOP-62 NSCLC = system: HOP-62 NSCLC
SK-MEL-28 melanoma = system: SK-MEL-28 melanoma
EKVX NSCLC = system: EKVX NSCLC
NCI/ADR-RES ovarian = system: NCI/ADR-RES ovarian
NCI-H460 lung = system: NCI-H460 lung
XF 498 CNS = system: XF 498 CNS
NCI-H226 lung = system: NCI-H226 lung
HS 578T breast = system: HS 578T breast
MDA-MB-231 breast = system: MDA-MB-231 breast
OVCAR-5 ovarian = system: OVCAR-5 ovarian
HOP-18 NSCLC = system: HOP-18 NSCLC
HL-60(TB) leukemia = system: HL-60(TB) leukemia
RPMI-8226 leukemia = system: RPMI-8226 leukemia
MALME-3M melanoma = system: MALME-3M melanoma
DU-145 prostate = system: DU-145 prostate
OVCAR-4 ovarian = system: OVCAR-4 ovarian
OVCAR-3 ovarian = system: OVCAR-3 ovarian
SN12C renal = system: SN12C renal
MOLT-4 leukemia = system: MOLT-4 leukemia
T-47D breast = system: T-47D breast
DMS 273 small cell lung = system: DMS 273 small cell lung
U251 CNS = system: U251 CNS
IGROV1 ovarian = system: IGROV1 ovarian
SF-539 CNS = system: SF-539 CNS
NCI-H522 lung = system: NCI-H522 lung
SNB-19 CNS = system: SNB-19 CNS
SK-OV-3 ovarian = system: SK-OV-3 ovarian
NCI-H23 lung = system: NCI-H23 lung
SF-295 CNS = system: SF-295 CNS
HOP-92 NSCLC = system: HOP-92 NSCLC
LXFL 529 NSCLC = system: LXFL 529 NSCLC
MCF7 breast = system: MCF7 breast
SR leukemia = system: SR leukemia
SNB-78 CNS = system: SNB-78 CNS
COLO 205 colon = system: COLO 205 colon
OVCAR-8 ovarian = system: OVCAR-8 ovarian
DMS 114 small cell lung = system: DMS 114 small cell lung
ACHN renal = system: ACHN renal
RXF-631 renal = system: RXF-631 renal
KM12 colon = system: KM12 colon
UACC-257 melanoma = system: UACC-257 melanoma
M19-MEL melanoma = system: M19-MEL melanoma
UO-31 renal = system: UO-31 renal
SK-MEL-2 melanoma = system: SK-MEL-2 melanoma
K-562 leukemia = system: K-562 leukemia
HCT-116 colon = system: HCT-116 colon
HCC-2998 colon = system: HCC-2998 colon
HT29 colon = system: HT29 colon
CAKI-1 renal = system: CAKI-1 renal
A498 renal = system: A498 renal
SK-MEL-5 melanoma = system: SK-MEL-5 melanoma
HCT-15 colon = system: HCT-15 colon
A549 NSCLC = system: A549 NSCLC
LOX IMVI melanoma = system: LOX IMVI melanoma

Structure (SMILES): Cc1ccc(S(=O)(=O)SC(C)(C)C)cc1
- TGI (SF-268 CNS): > 100 µM
- TGI (TK-10 renal): > 100 µM
- TGI (SW-620 colon): 47.9 µM
- TGI (M14 melanoma): > 88.8 µM
- TGI (SNB-75 CNS): > 100 µM
- TGI (CCRF-CEM leukemia): 39.2 µM
- TGI (DLD-1 colon): 35.3 µM
- TGI (BT-549 breast): 42.3 µM
- TGI (MDA-MB-435): 77.6 µM
- TGI (UACC-62 melanoma): 48.6 µM
- TGI (786-0 renal): 31.8 µM
- TGI (HOP-62 NSCLC): > 100 µM
- TGI (SK-MEL-28 melanoma): > 100 µM
- TGI (EKVX NSCLC): > 63.9 µM
- TGI (NCI/ADR-RES ovarian): 90.4 µM
- TGI (NCI-H460 lung): > 100 µM
- TGI (XF 498 CNS): 32.1 µM
- TGI (NCI-H226 lung): > 100 µM
- TGI (HS 578T breast): > 100 µM
- TGI (MDA-MB-231 breast): 47.6 µM
- TGI (OVCAR-5 ovarian): > 76 µM
- TGI (HOP-18 NSCLC): > 100 µM
- TGI (HL-60(TB) leukemia): 40.7 µM
- TGI (RPMI-8226 leukemia): 46.4 µM
- TGI (MALME-3M melanoma): > 62 µM
- TGI (DU-145 prostate): > 100 µM
- TGI (OVCAR-4 ovarian): 46.5 µM
- TGI (OVCAR-3 ovarian): 39.3 µM
- TGI (SN12C renal): > 65.2 µM
- TGI (MOLT-4 leukemia): 41.5 µM
- TGI (T-47D breast): > 100 µM
- TGI (DMS 273 small cell lung): 47.5 µM
- TGI (U251 CNS): > 100 µM
- TGI (IGROV1 ovarian): 37.3 µM
- TGI (SF-539 CNS): > 77.8 µM
- TGI (NCI-H522 lung): 32.3 µM
- TGI (SNB-19 CNS): > 100 µM
- TGI (SK-OV-3 ovarian): > 100 µM
- TGI (NCI-H23 lung): 19.5 µM
- TGI (SF-295 CNS): > 100 µM
- TGI (HOP-92 NSCLC): > 100 µM
- TGI (LXFL 529 NSCLC): > 100 µM
- TGI (MCF7 breast): 42.1 µM
- TGI (SR leukemia): > 100 µM
- TGI (SNB-78 CNS): > 100 µM
- TGI (COLO 205 colon): > 92.5 µM
- TGI (OVCAR-8 ovarian): 48.3 µM
- TGI (DMS 114 small cell lung): 35.6 µM
- TGI (ACHN renal): 98.1 µM
- TGI (RXF-631 renal): > 100 µM
- TGI (KM12 colon): > 91.4 µM
- TGI (UACC-257 melanoma): 50.3 µM
- TGI (M19-MEL melanoma): > 100 µM
- TGI (UO-31 renal): > 100 µM
- TGI (SK-MEL-2 melanoma): > 88.3 µM
- TGI (K-562 leukemia): 54.4 µM
- TGI (HCT-116 colon): 31.8 µM
- TGI (HCC-2998 colon): > 58.7 µM
- TGI (HT29 colon): 34.8 µM
- TGI (CAKI-1 renal): 41.4 µM
- TGI (A498 renal): > 100 µM
- TGI (SK-MEL-5 melanoma): > 100 µM
- TGI (HCT-15 colon): 53 µM
- TGI (A549 NSCLC): > 100 µM
- TGI (LOX IMVI melanoma): 60.1 µM
